These results are taken from patent US10829493B2, “Compositions and methods for treating KIT- and PDGFRA-mediated diseases” (Blueprint Medicines Corporation, priority 2019, dated 2020).

Molecules are shown by their SMILES. pIC50, pKd: −log10 of the molar value. Read-outs that look alike come from different tables or passages of the source.

The target in one data set is CYP3A4 (Homo sapiens (Human), UniProt P08684). Put plainly: CYP inhibition in human liver microsomes, CYP3A4 (midazolam/testosterone). In kind it is in vitro ADME. Conditions: for IC50: pooled human liver microsomes. The procedure: In vitro studies in human liver microsomes were run according the standard method. […] The samples were then analyzed by LC-MS/MS for the quantification of the probe substrate left after the reaction and the IC50 values were determined by non-linear regression. The substrates for CYP2C9, CYP2D6, CYP3A4 were diclofenac, dextromethorphan and midazolam/testosterone respectively.
Chain of CYP3A4 (P08684 whole entry): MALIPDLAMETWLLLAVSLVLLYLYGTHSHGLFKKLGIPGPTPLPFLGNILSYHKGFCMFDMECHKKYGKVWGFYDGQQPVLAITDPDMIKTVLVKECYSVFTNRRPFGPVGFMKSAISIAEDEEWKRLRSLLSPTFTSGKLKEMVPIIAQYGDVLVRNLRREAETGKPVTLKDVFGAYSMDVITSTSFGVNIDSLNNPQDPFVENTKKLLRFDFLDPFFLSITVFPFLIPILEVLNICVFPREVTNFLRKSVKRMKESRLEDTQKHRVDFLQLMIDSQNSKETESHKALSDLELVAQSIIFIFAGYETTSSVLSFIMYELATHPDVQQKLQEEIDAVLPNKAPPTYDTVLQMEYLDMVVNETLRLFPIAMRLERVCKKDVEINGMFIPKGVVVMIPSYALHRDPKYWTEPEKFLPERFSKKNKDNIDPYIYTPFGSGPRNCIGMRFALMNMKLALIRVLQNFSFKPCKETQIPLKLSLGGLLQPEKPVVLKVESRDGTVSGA
Background: Microsomes from liver hold many membrane-bound enzymes, among them those of drug oxidation.

A short description of data set [1]: Pharmacokinetics following single intravenous and oral administration in rats. In kind it is in vivo, Sprague-Dawley rats. The procedure:
Assessment of pharmacokinetics following single intravenous and oral administration in rats: 3 Sprague-Dawley rats were employed for each compound for each route of administration (iv or oral). For iv administration, 1 mg/kg (dose volume=5 mL/kg) of each compound was administered by intravenous route via […] injection; whereas for oral route, 2.5 mg/kg (dose volume=5 mL/kg) was administered via oral gavage. Blood samples were obtained via tail vein at predose, 0.083, 0.25, 0.5, 1, 2, 4 and 8 hr. In addition, blood samples were also obtained at 24 hr via cardiac puncture (under anesthesia with Isoflurane) for terminal bleeding. All the blood samples were analyzed for the drug concentrations via LC/MS-MS. Pharmacokinetic parameters such as Cmax, Tmax, AUClast, AUCinf, MRTlast, MRTinf, T1/2, Vss and CL were obtained by non-compartmental analysis (NCA). Further, unbound clearance (CLu) was obtained as follows: Clu=Cl/fu,plasma.
% F was calculated as follows: % F=[AUCinf(oral)/Dose]/[AUCinf(iv)/Dose]*100 (Zhivkova & Doytchinova, Molecular Pharmaceuticals 10:3758-68 (2013)).

In the next data set the target is wt KIT kinase (Homo sapiens (Human), UniProt P10721). Put plainly: Wild-type KIT binding assay (Kd determination, phage-tagged kinase, qPCR). The procedure:
Kd Determinations. For most assays, including wt KIT kinase, kinase-tagged T7 phage strains were prepared in an E. coli host derived from the BL21 strain. E. coli were grown to log-phase and infected with T7 phage and incubated with shaking at 32° C. until lysis. […] The liganded beads were blocked with excess biotin and washed with blocking buffer (SeaBlock (Pierce), 1% BSA, 0.05% Tween 20, 1 mM DTT) to remove unbound ligand and to reduce non-specific binding. […] Test compounds were prepared as 111× stocks in 100% DMSO. Kds were determined using an 11-point 3-fold compound dilution series with three DMSO control points. […] The compounds were then diluted directly into the assays such that the final concentration of DMSO was 0.9%. All reactions were performed in polypropylene 384-well plate. Each was a final volume of 0.02 ml. […] The kinase concentration in the eluates was measured by qPCR.
Binding Constants (Kds). Binding constants (Kds) were calculated with a standard dose-response curve using the Hill equation: Response=Background+Signal−Background 1+(KdHill Slope/DoseHill Slope). The Hill Slope was set to −1. Curves were fitted using a non-linear least square fit with the Levenberg-Marquardt algorithm.
(In general: In qPCR the cycle at which signal appears reflects the starting amount.)

Data set [2] concerns the target KIT D816V (Homo sapiens (Human), UniProt P10721, D816V/V560G). Put plainly: HMC1.2 autophosphorylation assay (phospho-Y719 KIT AlphaLISA). The following applies: HMC1.2 cell line, KIT autophosphorylation at tyrosine 719, 90 minutes; read-out: KIT (P-KIT HMC1.2 (nM)). In kind it is cell-based. The procedure:
10,000 HMC1.2 cells were incubated in 22 μL culture media (phenol-red free IMDM, no serum) in each well of a 384-well plate and serum starved overnight in a tissue culture incubator (5% CO2, 37° C.). […] 10 μL of 100 μg/mL streptavidin donor beads (Perkin Elmer) were added to each well, blocked from light with solid black adhesive and shaken at 300 rpm at room temperature for 2 hours. Fluorescence signal was obtained on Envision (Perkin Elmer) by AlphaScreen 384 well HTS protocol.
In general terms: Bead proximity is the source of the signal in Alpha formats.

In another data set the target is PDGFRα D842V (Homo sapiens (Human), UniProt P16234, D842V). Put plainly: PDGFRα D842V biochemical enzymatic activity assay (EZReader 2 mobility shift). The following applies: at APPKM for ATP, 25 μM ATP, 90 minutes. The source says: (§1) PDGFRα and KIT enzymatic activity was monitored using the Perkin Elmer electrophoretic mobility shift technology platform, the EZReader 2.
Chain of PDGFRα D842V (P16234 24-1089 D842V): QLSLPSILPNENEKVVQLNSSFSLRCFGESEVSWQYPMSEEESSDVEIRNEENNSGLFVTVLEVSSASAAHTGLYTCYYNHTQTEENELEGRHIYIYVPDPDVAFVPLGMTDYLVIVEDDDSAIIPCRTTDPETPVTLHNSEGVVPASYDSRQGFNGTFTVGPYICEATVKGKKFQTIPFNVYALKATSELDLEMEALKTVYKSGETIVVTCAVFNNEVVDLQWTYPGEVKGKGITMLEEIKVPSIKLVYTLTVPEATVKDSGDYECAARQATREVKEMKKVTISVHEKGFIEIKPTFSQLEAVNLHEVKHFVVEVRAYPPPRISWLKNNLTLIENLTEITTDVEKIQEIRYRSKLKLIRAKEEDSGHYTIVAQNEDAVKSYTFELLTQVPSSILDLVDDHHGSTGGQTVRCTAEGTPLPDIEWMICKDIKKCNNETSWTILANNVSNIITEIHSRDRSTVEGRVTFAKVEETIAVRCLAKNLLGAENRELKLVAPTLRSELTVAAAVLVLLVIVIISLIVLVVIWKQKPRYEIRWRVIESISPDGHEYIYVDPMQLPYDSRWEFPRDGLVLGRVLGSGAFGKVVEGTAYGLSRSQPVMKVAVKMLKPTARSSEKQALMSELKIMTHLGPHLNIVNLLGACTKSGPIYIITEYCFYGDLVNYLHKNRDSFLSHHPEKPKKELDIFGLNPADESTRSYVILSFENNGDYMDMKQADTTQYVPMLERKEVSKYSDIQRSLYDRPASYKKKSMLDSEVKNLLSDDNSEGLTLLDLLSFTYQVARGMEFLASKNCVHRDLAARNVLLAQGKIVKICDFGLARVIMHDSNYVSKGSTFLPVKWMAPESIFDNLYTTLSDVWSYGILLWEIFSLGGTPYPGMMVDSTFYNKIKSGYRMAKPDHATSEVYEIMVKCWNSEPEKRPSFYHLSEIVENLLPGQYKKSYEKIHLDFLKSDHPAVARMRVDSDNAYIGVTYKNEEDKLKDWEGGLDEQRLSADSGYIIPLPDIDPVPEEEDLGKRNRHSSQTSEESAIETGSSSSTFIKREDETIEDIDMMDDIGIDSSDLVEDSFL
(§2) Within the linear, steady-state phase of the kinase enzymatic reaction, the mixed pool of phosphorylated (product) and non-phosphorylated (substrate) peptides was passed through the microfluidic system of the PerkinElmer EZ Reader 2, under an applied electric potential difference. The presence of the phosphate group on the product peptide provided a difference in mass and charge between that of the substrate peptide, resulting in a separation of the substrate and product pools in the sample (Perrin et al., Expert Opin Drug Discovery 2010 Jan. 5(1):51-63).
(§3) As the product and substrate peptide mixture passes the lasers within the instrument, these pools are detected (λex=488 nm, λem=568 nm) and resolved as separate peaks. The ratio between these peaks reflects the activity of the compound at that concentration, in that well, under those conditions.
Inhibition of KIT (D816V) PDGFRα (D842V) Mutant Biochemical Enzymatic Activity
(§4) All test articles were dissolved in 100% DMSO at a stock concentration of 10 mM. A 100×, 10-point, 4-fold serial dilution of all test compounds was created in 100% DMSO, starting at a relevant concentration, usually 1 mM. A volume of 0.130 μL of each concentration was transferred to the relevant well of a 384-well assay plate (Greiner 781 201) using a TTPLabtech Mosquito nano-liter dispenser. Using the Multidrop, the remaining constituents of the reaction were then added to the 0.130 μL of compound as follows:
The reaction was stopped by the addition of 70 μl of Stop buffer (100 mM HEPES pH 7.5, 0.015% Brij 35, 35 mM EDTA and 0.2% of Coating Reagent 3, Caliper Lifesciences). The plate was read on a Caliper EZReader 2.

In data set [3] the target is KIT D816V (Homo sapiens (Human), UniProt P10721, D816V). Put plainly: KIT D816V biochemical enzymatic activity assay (EZReader 2 mobility shift). The following applies: at APPKM for ATP, 20 μM ATP, 60 minutes.
Chain of KIT D816V (Homo sapiens (Human), UniProt P10721, D816V) (P10721 26-976 D816V): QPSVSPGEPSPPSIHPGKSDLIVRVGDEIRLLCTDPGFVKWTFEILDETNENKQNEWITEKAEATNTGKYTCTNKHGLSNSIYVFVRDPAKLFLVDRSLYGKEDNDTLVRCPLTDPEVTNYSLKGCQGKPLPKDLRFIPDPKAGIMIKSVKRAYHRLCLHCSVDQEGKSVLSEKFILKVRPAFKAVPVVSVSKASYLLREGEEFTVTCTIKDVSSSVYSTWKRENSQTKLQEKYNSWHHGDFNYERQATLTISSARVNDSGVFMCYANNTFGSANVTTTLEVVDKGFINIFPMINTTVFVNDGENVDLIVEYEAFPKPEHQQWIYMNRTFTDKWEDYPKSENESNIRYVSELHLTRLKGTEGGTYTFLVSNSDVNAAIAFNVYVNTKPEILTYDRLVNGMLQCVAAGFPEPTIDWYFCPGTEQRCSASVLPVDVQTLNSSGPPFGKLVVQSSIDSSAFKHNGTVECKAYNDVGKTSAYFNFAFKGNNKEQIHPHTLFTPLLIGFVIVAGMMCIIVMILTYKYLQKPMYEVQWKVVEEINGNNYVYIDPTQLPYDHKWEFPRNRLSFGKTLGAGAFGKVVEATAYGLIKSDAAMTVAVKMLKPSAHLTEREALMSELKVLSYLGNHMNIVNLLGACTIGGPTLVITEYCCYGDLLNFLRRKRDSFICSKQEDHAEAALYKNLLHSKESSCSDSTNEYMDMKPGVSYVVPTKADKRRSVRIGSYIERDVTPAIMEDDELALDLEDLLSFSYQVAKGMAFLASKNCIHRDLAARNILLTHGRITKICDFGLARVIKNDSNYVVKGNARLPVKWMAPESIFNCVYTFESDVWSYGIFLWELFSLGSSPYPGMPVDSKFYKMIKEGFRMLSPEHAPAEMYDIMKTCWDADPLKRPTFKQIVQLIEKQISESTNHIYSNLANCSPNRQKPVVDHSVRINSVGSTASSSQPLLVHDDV
Text: as §1, §2, §3, §4
The plate was read on a Caliper EZReader 2.

Chain of KIT D816V (Homo sapiens (Human), UniProt P10721, D816V/V560G) (P10721 26-976 V560G/D816V): as the sequence (P10721 26-976 D816V) above, with V535G counted along it
Chain of wt KIT kinase (P10721 26-976): as the sequence (P10721 26-976 D816V) above, with V791D counted along it

As to `C[C@](N)(c1ccc(F)cc1)c1cnc(N2CCN(c3ncnn4cc(-c5cnn(CCO)c5)cc34)CC2)nc1` [Compound 4, (S)-2-(4-(4-(4-(5-(1-amino-1-(4-fluorophenyl)ethyl)pyrimidin-2-yl)piperazin-1-yl)pyrrolo[2,1-f][1,2,4]triazin-6-yl)-1H-pyrazol-1-yl)ethanol], the negative logarithm of the IC50 (pIC50) – broadly, the negative decadic logarithm of the IC50, by convention in mol/L – at CYP3A4 (as measured according to Example 5, substrate not stated (embodiment 14), read-out: IC50 for CYP3A4) is over 5.00. Further, the IC50 is at least 10 µM at CYP3A4 (substrate midazolam, read-out: CYP3A4 IC50 (μM) midazolam) and at least 10 µM at CYP3A4 (substrate testosterone, read-out: CYP3A4 IC50 (μM) testosterone). In addition, in data set [1] (Sprague-Dawley, blood, rat, iv 1 mg/kg, read-out: Rat IV PK Cl), the clearance is 12 mL/min/kg. The bioavailability – broadly, dose-corrected exposure relative to a reference, in per cent – in data set [1] (Sprague-Dawley, blood, rat, oral 2.5 mg/kg vs iv 1 mg/kg) was 80%. In addition, the “Rat IV PK unbound clearance (Clu)” value in data set [1] (iv 1 mg/kg, Clu=Cl/fu,plasma) is 582 mL/min/kg.
Consider `CCn1cc(-c2cc3c(N4CCN(c5ncc([C@@](C)(N)c6ccc(F)cc6)cn5)CC4)ncnn3c2)cn1` [Compound 63, reference compound], for which the negative logarithm of the Kd (pKd) (usually −log10 of the Kd, conventionally taken in molar units) on wt KIT kinase was 7.70 to 7.82. For the same compound, at KIT D816V [2], the IC50 was under 4.5 nM. The pIC50 on PDGFRα D842V and at KIT D816V [3] was at least 9.52 each time.
